In the NIST ThermoML archive (doi:10.1021/je500731x):

Conditions: Liquid, Ebulliometric method (Recirculating still)

CCCCO [butan-1-ol]
Conditions | vapor or sublimation pressure [kPa]
390.49 K | 101.3

CCCC(=O)CCC [4-heptanone]
Conditions | vapor or sublimation pressure [kPa]
358.74 K | 14.54
363.42 K | 17.72
370.01 K | 22.69
377.77 K | 29.93
383.7 K | 36.63
385.47 K | 40
385.5 K | 40
385.87 K | 40
388.63 K | 43.17
393.78 K | 50.95
398.38 K | 59.15
403.74 K | 69.39
407.98 K | 78.55
411.2 K | 86.2
413.43 K | 91.55

CCO [ethanol]
Conditions | vapor or sublimation pressure [kPa]
351.14 K | 101.3

CCCCC(=O)CC [3-heptanone]
Conditions | vapor or sublimation pressure [kPa]
354.82 K | 11.05
358.58 K | 12.93
363.03 K | 15.51
367.95 K | 18.75
373.6 K | 23.27
377.99 K | 27.11
383.09 K | 32.58
388.11 K | 40
388.36 K | 40
388.62 K | 39.13
388.67 K | 40
393.02 K | 45.12
398.84 K | 54.02
404.44 K | 64.03
409.63 K | 74.5
412.95 K | 82
416.5 K | 90.5

CCCCCC(C)=O [2-heptanone]
Conditions | vapor or sublimation pressure [kPa]
354.77 K | 9.87
358.59 K | 11.52
365.38 K | 15.05
367.88 K | 16.52
368.9 K | 17.34
373.79 K | 20.76
373.84 K | 20.76
379.25 K | 25.32
379.3 K | 25.32
383.78 K | 29.69
383.83 K | 29.69
388.51 K | 34.81
392.54 K | 40
393.11 K | 40.52
398.45 K | 48.09
403.15 K | 55.74
405.81 K | 60.35
409.67 K | 67.5
413.3 K | 75.05
416.77 K | 83.2
420.2 K | 91.5

CCCCCCCCCC [decane]
Conditions | vapor or sublimation pressure [kPa]
413.88 K | 40

CCCCCCCCC [nonane]
Conditions | vapor or sublimation pressure [kPa]
391.78 K | 40
391.87 K | 40
391.9 K | 40

CCCCCCCC [octane]
Conditions | vapor or sublimation pressure [kPa]
367.97 K | 40
368.3 K | 40
368.32 K | 40
